Test system: NCI-H719 tumor spheroids, viability
Test: Anticancer human tumor NCI-H719 cell line growth inhibition;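 also: spheroids exposed to compounds for seven days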;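 as to viability, T/C: percent viability relative to DMSO vehicle control as 100%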
Details: spheroids with HUVEC and MSC; for IC50: curve of first compound; for viability, T/C: stronger effect = lower value; active = viability on the fitted dose curve at most 10% of control; inactive = the rest
How it was run: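 Single agents and combinations were tested on spheroids built from tumor cells plus HUVEC and hMSC, at half-log dilutions starting at or near clinical Cmax, else 10 microM; final DMSO 0.25% (v/v).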

[1] = second compound 0.003 µM, first compound 0.0316 µM
[2] = second compound 0.003 µM, first compound 0.1 µM
[3] = second compound 0.003 µM, first compound 0.316 µM
[4] = second compound 0.003 µM, first compound 1 µM
[5] = second compound 0.003 µM, first compound 3.16 µM
[6] = second compound 0.003 µM, first compound 10 µM
[7] = second compound 0.00949 µM, first compound 0.0316 µM
[8] = second compound 0.00949 µM, first compound 0.1 µM
[9] = second compound 0.00949 µM, first compound 0.316 µM
[10] = second compound 0.00949 µM, first compound 1 µM
[11] = second compound 0.00949 µM, first compound 3.16 µM
[12] = second compound 0.00949 µM, first compound 10 µM
[13] = second compound 0.03 µM, first compound 0.0316 µM
[14] = second compound 0.03 µM, first compound 0.1 µM
[15] = second compound 0.03 µM, first compound 0.316 µM
[16] = second compound 0.03 µM, first compound 1 µM
[17] = second compound 0.03 µM, first compound 3.16 µM
[18] = second compound 0.03 µM, first compound 10 µM
[19] = second compound 0.0949 µM, first compound 0.0316 µM
[20] = second compound 0.0949 µM, first compound 0.1 µM
[21] = second compound 0.0949 µM, first compound 0.316 µM
[22] = second compound 0.0949 µM, first compound 1 µM
[23] = second compound 0.0949 µM, first compound 3.16 µM
[24] = second compound 0.0949 µM, first compound 10 µM
[25] = second compound 0.3 µM, first compound 0.0316 µM
[26] = second compound 0.3 µM, first compound 0.1 µM
[27] = second compound 0.3 µM, first compound 0.316 µM
[28] = second compound 0.3 µM, first compound 1 µM
[29] = second compound 0.3 µM, first compound 3.16 µM
[30] = second compound 0.3 µM, first compound 10 µM

CC(C)n1c(=O)n(C)c2cnc3cc(F)c(-c4ccc(OCCCN5CCCCC5)nc4)cc3c21 + CC[C@@]1(O)C(=O)OCc2c1cc1n(c2=O)Cc2cc3c(CN(C)C)c(O)ccc3nc2-1
inactive: viability, T/C [1] 33.1% | viability, T/C [2] 48.3% | viability, T/C [3] 61.5% | viability, T/C [4] 63.7% | viability, T/C [5] 67.9% | viability, T/C [6] 50.5% | viability, T/C [7] 8.54% | viability, T/C [8] 8.8% | viability, T/C [9] 7.39% | viability, T/C [10] 6.31% | viability, T/C [11] 16.9% | viability, T/C [12] 12.7%
< 31.6 nM: IC50 (second compound 0.003 µM) | IC50 (second compound 0.00949 µM) | IC50 (second compound 0.03 µM) | IC50 (second compound 0.0949 µM) | IC50 (second compound 0.3 µM)
active: viability, T/C [13] 7.27% | viability, T/C [14] 6.04% | viability, T/C [15] 7.74% | viability, T/C [16] 6.96% | viability, T/C [17] 8.35% | viability, T/C [18] 6.27% | viability, T/C [19] 7.12% | viability, T/C [20] 6.79% | viability, T/C [21] 7.51% | viability, T/C [22] 7.66% | viability, T/C [23] 7.78% | viability, T/C [24] 6.17% | viability, T/C [25] 8.38% | viability, T/C [26] 7.86% | viability, T/C [27] 8.29% | viability, T/C [28] 8.95% | viability, T/C [29] 8.79% | viability, T/C [30] 5.92%

COc1ccc([C@@H](O)c2cc(-c3ncnc4cc(N5CCOCC5)ccc34)c(F)cc2Cl)nn1 + CC[C@@]1(O)C(=O)OCc2c1cc1n(c2=O)Cc2cc3c(CN(C)C)c(O)ccc3nc2-1
inactive: viability, T/C [1] 42.3% | viability, T/C [2] 46.7% | viability, T/C [3] 42.6% | viability, T/C [4] 38.4% | viability, T/C [5] 30.1% | viability, T/C [6] 10.6%
active: viability, T/C [7] 8.42% | viability, T/C [8] 6.63% | viability, T/C [9] 6.02% | viability, T/C [10] 6.07% | viability, T/C [11] 6.61% | viability, T/C [12] 5.88% | viability, T/C [13] 5.79% | viability, T/C [14] 6.19% | viability, T/C [15] 5.16% | viability, T/C [16] 5.17% | viability, T/C [17] 4.89% | viability, T/C [18] 3.08% | viability, T/C [19] 6.51% | viability, T/C [20] 7.08% | viability, T/C [21] 5.96% | viability, T/C [22] 5.16% | viability, T/C [23] 3.45% | viability, T/C [24] 1.55% | viability, T/C [25] 7.33% | viability, T/C [26] 7.08% | viability, T/C [27] 6.09% | viability, T/C [28] 3.58% | viability, T/C [29] 1.58% | viability, T/C [30] 1.36%
< 31.6 nM: IC50 (second compound 0.003 µM) | IC50 (second compound 0.00949 µM) | IC50 (second compound 0.03 µM) | IC50 (second compound 0.0949 µM) | IC50 (second compound 0.3 µM)

O=C(c1cc(Cc2n[nH]c(=O)c3ccccc23)ccc1F)N1CCN(C(=O)C2CC2)CC1 + COc1cc2c(cc1O)CCNC21CSC2c3c(OC(C)=O)c(C)c4c(c3C(COC1=O)N1C(O)C3Cc5cc(C)c(OC)c(O)c5C(C21)N3C)OCO4
< 94.9 nM: IC50 (second compound 94.9 pM) | IC50 (second compound 0.0003 µM) | IC50 (second compound 0.000949 µM) | IC50 (second compound 0.003 µM)
356 nM: IC50 (second compound 30 pM)
inactive: viability, T/C (second compound 30 pM, first compound 0.0949 µM) 67% | viability, T/C (second compound 30 pM, first compound 0.3 µM) 48.7% | viability, T/C (second compound 30 pM, first compound 0.949 µM) 41.7% | viability, T/C (second compound 30 pM, first compound 3 µM) 22.3% | viability, T/C (second compound 30 pM, first compound 9.49 µM) 12.5% | viability, T/C (second compound 94.9 pM, first compound 0.0949 µM) 23.4% | viability, T/C (second compound 94.9 pM, first compound 0.3 µM) 13.7% | viability, T/C (second compound 94.9 pM, first compound 0.949 µM) 14% | viability, T/C (second compound 94.9 pM, first compound 3 µM) 13.3% | viability, T/C (second compound 94.9 pM, first compound 9.49 µM) 13.3% | viability, T/C (second compound 0.0003 µM, first compound 0.0949 µM) 10.9%
active: viability, T/C (second compound 30 pM, first compound 30 µM) 8.97% | viability, T/C (second compound 94.9 pM, first compound 30 µM) 6.02% | viability, T/C (second compound 0.0003 µM, first compound 0.3 µM) 8.6% | viability, T/C (second compound 0.0003 µM, first compound 0.949 µM) 11.6% | viability, T/C (second compound 0.0003 µM, first compound 3 µM) 11.6% | viability, T/C (second compound 0.0003 µM, first compound 9.49 µM) 8.94% | viability, T/C (second compound 0.0003 µM, first compound 30 µM) 6.85% | viability, T/C (second compound 0.000949 µM, first compound 0.0949 µM) 6.97% | viability, T/C (second compound 0.000949 µM, first compound 0.3 µM) 8.6% | viability, T/C (second compound 0.000949 µM, first compound 0.949 µM) 8.56% | viability, T/C (second compound 0.000949 µM, first compound 3 µM) 7.26% | viability, T/C (second compound 0.000949 µM, first compound 9.49 µM) 5.7% | viability, T/C (second compound 0.000949 µM, first compound 30 µM) 4.86% | viability, T/C (second compound 0.003 µM, first compound 0.0949 µM) 0.61% | viability, T/C (second compound 0.003 µM, first compound 0.3 µM) 0.45% | viability, T/C (second compound 0.003 µM, first compound 0.949 µM) 0.63% | viability, T/C (second compound 0.003 µM, first compound 3 µM) 0.7% | viability, T/C (second compound 0.003 µM, first compound 9.49 µM) 0.69% | viability, T/C (second compound 0.003 µM, first compound 30 µM) 1.37%
